Assays:
[1] = target: T1, Carbonic anhydrase (Bos taurus) (UniProt P00921+Q95323+P18915+Q3SZX4)
Description: Inhibitory activity against bovine Carbonic anhydrase

[2] = species on record: Bos taurus; assay: Inhibitory activity against bovine erythrocyte B enzyme
[3] = target: T1, Carbonic anhydrase (Bos taurus); assay: Inhibitory activity against Carbonic anhydrase; type: protein assay

Structure (SMILES)	Log II50 [1]	further results
Cc1ccccc1S(N)(=O)=O	0.16	
NS(=O)(=O)c1ccccc1	0.58	
NS(=O)(=O)c1ccc(Cl)c(Cl)c1	1.76	
NS(=O)(=O)c1cccc(Cl)c1		Log II50 [2]: 1
NS(=O)(=O)c1ccccc1Cl		Log II50 [2]: 0.88
CC(=O)Nc1ccc(S(N)(=O)=O)cc1	1.48	
Cc1ccc(S(N)(=O)=O)cc1	0.78	
NS(=O)(=O)c1ccc([N+](=O)[O-])c(Cl)c1	1.74	
NS(=O)(=O)c1ccc(Cl)c([N+](=O)[O-])c1		Log II50 [3]: 2.13
NS(=O)(=O)c1ccc(Cl)cc1	1.08	
CNc1ccc(S(N)(=O)=O)cc1	0.18	
Cc1ccc(S(N)(=O)=O)cc1C	0.48	
CC(=O)c1ccc(S(N)(=O)=O)cc1		Log II50 [2]: 1.32
COc1ccc(S(N)(=O)=O)cc1	0.71	
NS(=O)(=O)c1cccc([N+](=O)[O-])c1	1.25	
Cc1cccc(S(N)(=O)=O)c1	0.66	

From ChEMBL document CHEMBL1124467, “The binding of benzenesulfonamides to carbonic anhydrase enzyme. A molecular mechanics study and quantitative structure-activity relationships” (J Med Chem, 1989)
